Test results taken from patent US11414422B2, “Substituted pyrido[4,3-b]indoles and azepino[4,5-b]indoles as inhibitors of cGAS” (The Rockefeller University, priority 2018, dated 2022).

Biological target: T1, h-cGAS (Homo sapiens, UniProt Q8N884)
T1 construct: The final concentration of full-length h-cGAS, dsDNA, ATP, and GTP were 100 nM
Test: cGAS biochemical assay, RapidFire 365 mass spectrometry (RF-MS)
Conditions: full-length h-cGAS 100 nM, dsDNA 25 nM, ATP and GTP 100 μM, 7 h at RT

T1 sequence (Q8N884 whole entry): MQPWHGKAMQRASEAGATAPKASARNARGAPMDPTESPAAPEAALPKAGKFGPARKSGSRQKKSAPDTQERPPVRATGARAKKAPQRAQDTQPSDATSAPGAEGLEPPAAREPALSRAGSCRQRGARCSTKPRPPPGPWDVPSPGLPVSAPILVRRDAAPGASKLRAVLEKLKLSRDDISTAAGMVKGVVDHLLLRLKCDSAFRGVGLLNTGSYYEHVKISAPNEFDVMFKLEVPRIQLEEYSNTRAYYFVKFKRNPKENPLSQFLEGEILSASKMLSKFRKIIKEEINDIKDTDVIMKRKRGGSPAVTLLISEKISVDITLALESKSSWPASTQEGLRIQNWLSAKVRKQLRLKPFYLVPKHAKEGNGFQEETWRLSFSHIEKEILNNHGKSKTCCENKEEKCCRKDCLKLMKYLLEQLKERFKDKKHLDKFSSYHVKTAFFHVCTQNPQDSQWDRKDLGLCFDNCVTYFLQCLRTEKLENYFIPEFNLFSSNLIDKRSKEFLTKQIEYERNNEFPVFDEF

SMILES	IC50 [nM]
COCC(=O)N1CCc2[nH]c3c(Cl)cc(Cl)cc3c2C1 [TDI-004576]	3080
COCC(=O)N1CCc2c(c3cc(Cl)cc(Cl)c3n2C)C1 [TDI-004581]	2410
COCC(=O)N1CCc2c(c3cc(Cl)cc(Cl)c3n2CC(F)(F)F)C1 [TDI-005021]	13900
COCC(=O)N1CCc2[nH]c3c(Cl)cccc3c2C1 [TDI-005323]	5860
COCC(=O)N1CCc2[nH]c3cc(Cl)ccc3c2C1 [TDI-005324]	4020
COCC(=O)N1CCc2[nH]c3c(Cl)ccc(Cl)c3c2C1 [TDI-005325]	3230
CCOCC(=O)N1CCc2[nH]c3c(Cl)c(Cl)ccc3c2C1 [TDI-005716]	1510
COCCOCC(=O)N1CCc2[nH]c3c(Cl)c(Cl)ccc3c2C1 [TDI-005719]	3290
O=C(C1CCCO1)N1CCc2[nH]c3c(Cl)c(Cl)ccc3c2C1 (stereo not shown) [TDI-005745]	3080
COCC(=O)N1CCc2[nH]c3c(Br)c(Cl)ccc3c2C1 [TDI-005776]	203
COCC(=O)N1CCc2[nH]c3c(OC)c(Cl)ccc3c2C1 [TDI-005777]	24700
COCC(=O)N1CCc2[nH]c3c(Cl)c(Br)ccc3c2C1 [TDI-005854]	198
COCC(=O)N1CCc2[nH]c3cc(Br)ccc3c2C1 [TDI-005855]	1740
COCC(=O)N1CCc2[nH]c3c(Cl)c(C#N)ccc3c2C1 [TDI-006171]	7690
COCC(=O)N1CCc2[nH]c3c(C#N)c(Cl)ccc3c2C1 [TDI-006182]	570
O=C(CO)N1CCc2[nH]c3c(Cl)c(Cl)ccc3c2CC1 [TDI-006183]	469
O=C(CO)N1CCc2[nH]c3c(Br)c(Cl)ccc3c2C1 [TDI-006261]	140
Cc1ccc2c3c([nH]c2c1C)CCN(C(=O)CO)C3 [TDI-006339]	7630
O=C(CO)N1CCc2[nH]c3c(F)c(Cl)ccc3c2C1 [TDI-006340]	129
O=C(CO)N1CCc2[nH]c3c(Cl)c(Br)ccc3c2C1 [TDI-006354]	43

SMILES	IC50 [nM]
Cc1ccc2c3c([nH]c2c1Cl)CCN(C(=O)CO)C3 [TDI-006358]	597
O=C(CO)N1CCc2[nH]c3c(Cl)c(F)ccc3c2C1 [TDI-006359]	440
Cc1c(Cl)ccc2c3c([nH]c12)CCN(C(=O)CO)C3 [TDI-006360]	327
Cn1c2c(c3ccc(Cl)c(Cl)c31)CN(C(=O)CO)CC2 [TDI-006366]	201
COc1cc2c3c([nH]c2c(Cl)c1Cl)CCN(C(=O)CO)C3 [TDI-006528]	31
O=C(CO)N1CCc2[nH]c3c(F)c(Br)ccc3c2C1 [TDI-006529, 1-(7-Bromo-6-fluoro-1,3,4,5-tetrahydro-2H-pyrido[4,3-b]indol-2-yl)-2-hydroxyethan-1-one]	39
COc1cc(Cl)c(Cl)c2[nH]c3c(c12)CN(C(=O)CO)CC3 [TDI-006622]	49
C=Cc1ccc2c3c([nH]c2c1F)CCN(C(=O)CO)C3 [TDI-006923]	19300
N#Cc1c(Cl)ccc2c3c([nH]c12)CCN(C(=O)CO)C3 [TDI-006931]	402
N#Cc1ccc2c3c([nH]c2c1C#N)CCN(C(=O)CO)C3 [TDI-006932]	> 25000
O=C(CO)N1CCc2[nH]c3c(F)c(Cl)c(Br)cc3c2C1 [TDI-007362]	591
C#Cc1ccc2c3c([nH]c2c1F)CCN(C(=O)CO)C3 [TDI-007433]	1450
O=C(CO)N1CCc2[nH]c3c(Cl)c(Cl)cc(-c4ccn[nH]4)c3c2C1 [TDI-007457]	54.1
N#Cc1cc2c3c([nH]c2c(F)c1Cl)CCN(C(=O)CO)C3 [TDI-007542]	1230
O=C(CO)N1CCc2[nH]c3c(F)c(Cl)c(F)cc3c2C1 [TDI-007544]	166
Cn1c2c(c3c(-c4cn[nH]c4)cc(Cl)c(Cl)c31)CN(C(=O)CO)CC2 [TDI-007945]	125
COCC(=O)N1CCc2c(c3c(-c4cn[nH]c4)cc(Cl)c(Cl)c3n2C)C1 [TDI-008026]	203
COCC(=O)N1CCc2c(c3ccc(Br)c(F)c3n2C)C1 [TDI-008034]	401
Cn1c2c(c3ccc(Br)c(F)c31)CN(C(=O)CO)CC2 [TDI-008061]	131
CCn1c2c(c3ccc(Br)c(F)c31)CN(C(=O)CO)CC2 [TDI-008062]	1030

Results, then the compound that gave them:

IC50 [nM]	SMILES
300	CC1CN(C(=O)CO)Cc2c1[nH]c1c(Cl)c(Cl)ccc21 (stereo not shown) [TDI-007553]
6740	O=C(CO)N1CCc2[nH]c3c(F)c(Cl)c(N4CCC4)cc3c2C1 [TDI-007560]
174	C[C@H]1CN(C(=O)CO)Cc2c1[nH]c1c(Cl)c(Cl)ccc21 [TDI-007575]
323	C[C@@H]1CN(C(=O)CO)Cc2c1[nH]c1c(Cl)c(Cl)ccc21 [TDI-007576]
352	N#Cc1cc(Cl)c(Cl)c2[nH]c3c(c12)CN(C(=O)CO)CC3 [TDI-007586]
84.8	O=C(CO)N1CCc2[nH]c3c(Cl)c(Cl)cc(-c4ccoc4)c3c2C1 [TDI-008069]
97.5	O=C(CO)N1CCc2[nH]c3c(Cl)c(Cl)cc(-c4ccncc4)c3c2C1 [TDI-008072]
469	Cn1cccc1-c1cc(Cl)c(Cl)c2[nH]c3c(c12)CN(C(=O)CO)CC3 [TDI-008075]
11400	Cc1[nH]ncc1-c1cc(Cl)c(Cl)c2[nH]c3c(c12)CN(C(=O)CO)CC3 [TDI-008076]
31.8	O=C(CO)N1CCc2[nH]c3c(Cl)c(Cl)cc(C4=CCCCO4)c3c2C1 [TDI-008078]
890	O=C(CO)N1CCc2[nH]c3c(Cl)c(Cl)cc(C4=CCOCC4)c3c2C1 [TDI-008079]
66.8	O=C(CO)N1CCc2[nH]c3c(Cl)c(Cl)cc(-c4ccsc4)c3c2C1 [TDI-008080]
47.9	O=C(CO)N1CCc2[nH]c3c(Cl)c(Cl)cc(-c4cccs4)c3c2C1 [TDI-008081]
322	Nc1ccccc1-c1cc(Cl)c(Cl)c2[nH]c3c(c12)CN(C(=O)CO)CC3 [TDI-008082]
20.3	Nc1ccc(-c2cc(Cl)c(Cl)c3[nH]c4c(c23)CN(C(=O)CO)CC4)cc1 [TDI-008083]
258	O=C(CO)N1CCc2[nH]c3c(Cl)c(Cl)cc(-c4ccccc4O)c3c2C1 [TDI-008084]
30.9	O=C(CO)N1CCc2[nH]c3c(Cl)c(Cl)cc(-c4cccc(O)c4)c3c2C1 [TDI-008085]
2050	Nc1ncccc1-c1cc(Cl)c(Cl)c2[nH]c3c(c12)CN(C(=O)CO)CC3 [TDI-008086]
56.9	Cc1ncc(-c2cc(Cl)c(Cl)c3[nH]c4c(c23)CN(C(=O)CO)CC4)cn1 [TDI-008088]
64.4	O=C(CO)N1CCc2[nH]c3c(Cl)c(Cl)cc(-c4ccc(F)cc4)c3c2C1 [TDI-008089]
26.7	O=C(CO)N1CCc2[nH]c3c(Cl)c(Cl)cc(-c4ccccc4F)c3c2C1 [TDI-008090]
31	O=C(CO)N1CCc2[nH]c3c(Cl)c(Cl)cc(-c4cccc(F)c4)c3c2C1 [TDI-008091]
1840	Cc1nn(C)cc1-c1cc(Cl)c(Cl)c2[nH]c3c(c12)CN(C(=O)CO)CC3 [TDI-008092]
330	Cc1cc(-c2cc(Cl)c(Cl)c3[nH]c4c(c23)CN(C(=O)CO)CC4)nn1C [TDI-008093]

IC50 [nM]	SMILES
371	Cc1c(-c2cc(Cl)c(Cl)c3[nH]c4c(c23)CN(C(=O)CO)CC4)cnn1C [TDI-008094]
929	Cc1cc(-c2cc(Cl)c(Cl)c3[nH]c4c(c23)CN(C(=O)CO)CC4)n(C)n1 [TDI-008095]
5950	Cc1noc(C)c1-c1cc(Cl)c(Cl)c2[nH]c3c(c12)CN(C(=O)CO)CC3 [TDI-008096]
42.2	N#Cc1ccccc1-c1cc(Cl)c(Cl)c2[nH]c3c(c12)CN(C(=O)CO)CC3 [TDI-008097]
85.3	N#Cc1cccc(-c2cc(Cl)c(Cl)c3[nH]c4c(c23)CN(C(=O)CO)CC4)c1 [TDI-008098]
5270	N#Cc1ncc(-c2cc(Cl)c(Cl)c3[nH]c4c(c23)CN(C(=O)CO)CC4)cn1 [TDI-008100]
105	CNc1ccc(-c2cc(Cl)c(Cl)c3[nH]c4c(c23)CN(C(=O)CO)CC4)cn1 [TDI-008101]
40.2	COc1cccc(-c2cc(Cl)c(Cl)c3[nH]c4c(c23)CN(C(=O)CO)CC4)n1 [TDI-008102]
44.1	COc1cccnc1-c1cc(Cl)c(Cl)c2[nH]c3c(c12)CN(C(=O)CO)CC3 [TDI-008103]
95.2	COc1ccnc(-c2cc(Cl)c(Cl)c3[nH]c4c(c23)CN(C(=O)CO)CC4)c1 [TDI-008104]
107	COc1ccc(-c2cc(Cl)c(Cl)c3[nH]c4c(c23)CN(C(=O)CO)CC4)nc1 [TDI-008105]
49.3	COc1cc(-c2cc(Cl)c(Cl)c3[nH]c4c(c23)CN(C(=O)CO)CC4)ccn1 [TDI-008106]
52.4	COc1cncc(-c2cc(Cl)c(Cl)c3[nH]c4c(c23)CN(C(=O)CO)CC4)c1 [TDI-008107]
552	Cn1cc(-c2cc(Cl)c(Cl)c3[nH]c4c(c23)CN(C(=O)CO)CC4)ccc1=O [TDI-008108]
2330	COc1cnccc1-c1cc(Cl)c(Cl)c2[nH]c3c(c12)CN(C(=O)CO)CC3 [TDI-008109]
2970	COc1ncccc1-c1cc(Cl)c(Cl)c2[nH]c3c(c12)CN(C(=O)CO)CC3 [TDI-008110]
268	CNc1ncc(-c2cc(Cl)c(Cl)c3[nH]c4c(c23)CN(C(=O)CO)CC4)cn1 [TDI-008111]
201	COc1ncc(-c2cc(Cl)c(Cl)c3[nH]c4c(c23)CN(C(=O)CO)CC4)cn1 [TDI-008112]
962	Cc1nc(C)c(-c2cc(Cl)c(Cl)c3[nH]c4c(c23)CN(C(=O)CO)CC4)s1 [TDI-008113]
62.2	COc1ncc(-c2cc(Cl)c(Cl)c3[nH]c4c(c23)CN(C(=O)CO)CC4)s1 [TDI-008114]
45.1	O=C(CO)N1CCc2[nH]c3c(Cl)c(Cl)cc(-c4cnn(C(F)F)c4)c3c2C1 [TDI-008115]
76.8	NC(=O)c1cccc(-c2cc(Cl)c(Cl)c3[nH]c4c(c23)CN(C(=O)CO)CC4)c1 [TDI-008118]
438	CN(C)c1cccc(-c2cc(Cl)c(Cl)c3[nH]c4c(c23)CN(C(=O)CO)CC4)c1 [TDI-008120]
350	CN(C)Cc1cc(Cl)c(Cl)c2[nH]c3c(c12)CN(C(=O)CO)CC3 [TDI-008437]
